In publication PMC5362808, “Discovery of multi-target receptor tyrosine kinase inhibitors as novel anti-angiogenesis agents” (Scientific Reports, 2017):
Read-outs that look alike come from different tables or passages of the source. One block for each molecule: values may come before it.

Legend:
B-Raf = B-Raf (Homo sapiens, UniProt P15056); test: Kinase selectivity assay, B-Raf; format: biochemical; conditions: Table 3 selectivity profile
TIE-2 = TIE-2 (Homo sapiens, UniProt Q02763); test: ADP-Glo kinase inhibition assay, TIE-2; format: biochemical
Protocol: (§1) Tyrosine kinase inhibition were tested by luminescent ADP-Glo^TM assay.
(§2) The kinase assay was performed in duplicate in a reaction mixture of final volume of 10 μL. […] The assay plate was incubated at 30 °C for 1 h. After the plate was cooled at room temperature for 5 min, 5 μL of ADP-Glo reagent was added into each well to stop the reaction and consume the remaining […] within 40 min. At the end, 10 μL of kinase detection reagent was added into the well and incubated for 30 min to produce a luminescence signal. […] The assay plate was incubated at 30 °C for 4 h. After the plate was cooled at room temperature for 5 min, 5 μL of ADP-Glo reagent was added into each well to stop the reaction and consume the remaining […] within 1 h. At the end, 10 μL of kinase detection reagent was added into the well and incubated for 30 min to produce a luminescence signal. The luminescence was read by VICTOR-X multi- label plate reader. The signal was correlated with the amount of […] present in the reaction and was […] with the kinase activity.

EGFR = EGFR (Homo sapiens, UniProt P00533); test: Kinase selectivity assay, EGFR; format: biochemical; conditions: Table 3 selectivity profile
EA.hy926 = test: MTT anti-proliferative assay against human vascular endothelial cell; format: cell-based; conditions: EA.hy 926, 48 h treatment
Protocol: Growth inhibitory activities were evaluated against human vascular endothelial cell (EA.hy926)[25]. Thirteen selected title compounds were tested using MTT assay to assess cell proliferation. Exponentially growing cells were harvested and plated in 96-well plates at a concentration of […] cells/well, and then incubated for 24 h at 37 °C. The cells were treated with title compounds respectively at various concentrations for 48 h. Then, […] fresh MTT (5 mg/mL) was added to each well and incubated for 4 h at 37 °C. Supernatant was discarded, and […] DMSO was added to each well. Absorbance values were determined by a microplate reader (Bio-Rad Instruments) at 490 nm. The IC50 values were calculated according to inhibition ratios.

EphB4 = biological target: T1, EphB4 (Homo sapiens, UniProt P54760); test: ADP-Glo kinase inhibition assay, EphB4; format: biochemical; conditions: read-out: EphB4 inhibitory activity (IC50)
T1 sequence (P54760 16-987): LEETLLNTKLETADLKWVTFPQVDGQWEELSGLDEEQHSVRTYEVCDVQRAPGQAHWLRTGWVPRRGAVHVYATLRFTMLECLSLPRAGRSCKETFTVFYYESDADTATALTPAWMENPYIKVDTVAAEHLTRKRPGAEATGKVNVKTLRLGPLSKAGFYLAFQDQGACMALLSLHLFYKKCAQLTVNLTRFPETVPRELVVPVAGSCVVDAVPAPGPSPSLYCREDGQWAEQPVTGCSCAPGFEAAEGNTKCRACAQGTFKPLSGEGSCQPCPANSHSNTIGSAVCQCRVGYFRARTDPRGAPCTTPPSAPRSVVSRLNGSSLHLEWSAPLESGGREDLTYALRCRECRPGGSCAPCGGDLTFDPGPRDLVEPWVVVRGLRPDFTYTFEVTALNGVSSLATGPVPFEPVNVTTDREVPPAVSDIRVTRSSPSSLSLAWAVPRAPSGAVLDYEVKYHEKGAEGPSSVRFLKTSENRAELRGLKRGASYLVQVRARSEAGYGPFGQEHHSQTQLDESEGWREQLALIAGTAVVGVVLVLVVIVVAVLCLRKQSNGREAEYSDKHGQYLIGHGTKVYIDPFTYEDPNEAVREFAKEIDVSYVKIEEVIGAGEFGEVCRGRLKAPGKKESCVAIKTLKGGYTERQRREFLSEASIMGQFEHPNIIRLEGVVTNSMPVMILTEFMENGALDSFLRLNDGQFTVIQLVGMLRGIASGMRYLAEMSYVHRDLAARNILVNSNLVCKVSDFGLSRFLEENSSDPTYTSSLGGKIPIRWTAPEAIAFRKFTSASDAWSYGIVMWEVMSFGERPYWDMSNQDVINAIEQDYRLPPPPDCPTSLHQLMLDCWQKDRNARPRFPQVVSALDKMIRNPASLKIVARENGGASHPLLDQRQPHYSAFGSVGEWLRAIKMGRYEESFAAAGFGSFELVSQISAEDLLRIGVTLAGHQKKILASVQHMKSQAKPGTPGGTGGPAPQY
Protocol: as §1, §2

VEGFR-2 = VEGFR-2 (Homo sapiens, UniProt P35968); test: ADP-Glo kinase inhibition assay, VEGFR-2; format: biochemical; conditions: read-out: VEGFR-2 inhibitory activity (IC50)
Protocol: as §1, §2

Src = Src (Homo sapiens, UniProt P12931); test: Kinase selectivity assay, Src; format: biochemical; conditions: Table 3 selectivity profile
FGFR-1 = FGFR-1 (Homo sapiens, UniProt P11362); test: Kinase selectivity assay, FGFR-1; format: biochemical; conditions: Table 3 selectivity profile
[1] = Table 1, ATP 50 μM, read-out: Tie-2 inhibitory activity (IC50)
[2] = Table 2, ATP 50 μM, read-out: TIE-2 inhibitory activity (IC50)

Sequence of TIE-2 (Q02763 23-1124): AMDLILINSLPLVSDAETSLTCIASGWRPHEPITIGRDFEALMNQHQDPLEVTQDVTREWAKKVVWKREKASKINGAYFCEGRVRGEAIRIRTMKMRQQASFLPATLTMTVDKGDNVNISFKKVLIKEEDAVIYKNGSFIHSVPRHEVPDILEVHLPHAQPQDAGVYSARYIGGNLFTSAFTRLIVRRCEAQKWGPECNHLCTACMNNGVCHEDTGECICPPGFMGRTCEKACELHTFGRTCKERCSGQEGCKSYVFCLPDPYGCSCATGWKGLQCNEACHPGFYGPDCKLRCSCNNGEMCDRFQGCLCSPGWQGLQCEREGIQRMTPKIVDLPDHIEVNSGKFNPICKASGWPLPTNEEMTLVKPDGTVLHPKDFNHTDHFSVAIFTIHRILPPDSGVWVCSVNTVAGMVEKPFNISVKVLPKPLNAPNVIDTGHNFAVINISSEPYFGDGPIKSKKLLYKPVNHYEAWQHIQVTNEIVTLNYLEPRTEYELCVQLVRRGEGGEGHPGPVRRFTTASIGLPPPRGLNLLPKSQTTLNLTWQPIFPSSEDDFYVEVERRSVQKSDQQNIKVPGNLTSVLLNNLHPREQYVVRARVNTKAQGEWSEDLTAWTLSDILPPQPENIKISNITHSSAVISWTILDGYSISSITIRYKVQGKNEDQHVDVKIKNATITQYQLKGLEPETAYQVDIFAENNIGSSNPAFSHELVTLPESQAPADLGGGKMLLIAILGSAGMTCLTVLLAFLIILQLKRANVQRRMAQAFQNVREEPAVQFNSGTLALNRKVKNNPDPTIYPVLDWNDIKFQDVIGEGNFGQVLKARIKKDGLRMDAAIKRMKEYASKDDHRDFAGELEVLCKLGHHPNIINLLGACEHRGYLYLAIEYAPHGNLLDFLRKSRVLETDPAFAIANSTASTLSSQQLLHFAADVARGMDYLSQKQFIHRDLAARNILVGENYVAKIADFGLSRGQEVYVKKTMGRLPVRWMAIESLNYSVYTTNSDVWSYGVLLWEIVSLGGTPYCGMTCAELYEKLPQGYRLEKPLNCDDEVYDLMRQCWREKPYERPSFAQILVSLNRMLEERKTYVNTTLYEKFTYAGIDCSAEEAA
Sequence of VEGFR-2 (P35968 20-1356): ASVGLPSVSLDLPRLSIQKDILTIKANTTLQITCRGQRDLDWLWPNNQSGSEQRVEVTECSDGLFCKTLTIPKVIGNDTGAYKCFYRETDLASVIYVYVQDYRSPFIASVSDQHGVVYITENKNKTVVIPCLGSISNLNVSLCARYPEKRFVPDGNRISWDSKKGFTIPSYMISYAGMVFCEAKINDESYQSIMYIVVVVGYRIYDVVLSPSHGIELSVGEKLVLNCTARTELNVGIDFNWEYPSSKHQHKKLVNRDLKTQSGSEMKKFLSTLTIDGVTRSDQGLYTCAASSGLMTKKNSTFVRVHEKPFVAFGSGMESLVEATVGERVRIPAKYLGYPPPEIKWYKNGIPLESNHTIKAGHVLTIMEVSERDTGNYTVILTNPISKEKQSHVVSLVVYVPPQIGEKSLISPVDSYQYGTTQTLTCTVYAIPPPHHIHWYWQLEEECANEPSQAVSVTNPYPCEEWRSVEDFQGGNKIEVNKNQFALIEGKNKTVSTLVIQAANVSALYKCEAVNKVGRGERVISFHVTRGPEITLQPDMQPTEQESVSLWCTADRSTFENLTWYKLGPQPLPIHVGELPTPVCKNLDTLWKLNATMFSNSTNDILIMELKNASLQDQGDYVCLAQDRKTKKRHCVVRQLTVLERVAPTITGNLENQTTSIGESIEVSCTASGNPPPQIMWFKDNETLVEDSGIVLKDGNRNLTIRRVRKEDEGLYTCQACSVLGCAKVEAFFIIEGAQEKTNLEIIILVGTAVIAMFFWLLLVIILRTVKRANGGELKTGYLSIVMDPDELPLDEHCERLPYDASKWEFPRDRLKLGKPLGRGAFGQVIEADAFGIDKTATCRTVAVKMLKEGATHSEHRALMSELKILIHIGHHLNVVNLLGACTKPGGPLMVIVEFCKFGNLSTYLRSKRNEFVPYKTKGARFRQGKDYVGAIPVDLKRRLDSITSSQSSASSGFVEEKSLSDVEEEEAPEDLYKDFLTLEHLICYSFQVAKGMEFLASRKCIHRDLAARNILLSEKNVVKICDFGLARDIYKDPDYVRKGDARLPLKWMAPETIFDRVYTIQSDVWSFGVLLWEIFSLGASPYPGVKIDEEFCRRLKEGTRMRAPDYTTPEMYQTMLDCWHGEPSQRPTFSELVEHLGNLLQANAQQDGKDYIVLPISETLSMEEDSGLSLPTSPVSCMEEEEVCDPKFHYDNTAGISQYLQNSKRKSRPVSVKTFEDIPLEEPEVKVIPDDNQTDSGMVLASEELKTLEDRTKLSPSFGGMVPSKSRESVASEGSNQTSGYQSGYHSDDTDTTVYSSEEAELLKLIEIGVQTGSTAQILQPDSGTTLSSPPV
Sequence of Src (P12931 whole entry, species assumed): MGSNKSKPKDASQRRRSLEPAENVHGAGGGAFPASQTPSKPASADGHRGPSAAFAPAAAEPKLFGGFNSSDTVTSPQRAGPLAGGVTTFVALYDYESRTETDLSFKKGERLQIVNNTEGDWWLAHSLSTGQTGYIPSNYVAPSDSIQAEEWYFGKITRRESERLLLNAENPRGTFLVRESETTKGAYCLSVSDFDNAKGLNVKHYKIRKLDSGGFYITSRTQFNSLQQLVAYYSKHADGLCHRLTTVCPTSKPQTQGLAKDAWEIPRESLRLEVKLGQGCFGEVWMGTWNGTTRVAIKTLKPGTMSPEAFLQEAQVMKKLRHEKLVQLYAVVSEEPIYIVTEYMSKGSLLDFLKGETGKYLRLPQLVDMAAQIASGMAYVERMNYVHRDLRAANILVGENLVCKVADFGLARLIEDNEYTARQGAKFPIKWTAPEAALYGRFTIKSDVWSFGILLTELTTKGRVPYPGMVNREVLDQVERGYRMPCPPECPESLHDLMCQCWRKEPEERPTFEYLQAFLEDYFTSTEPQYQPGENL
Sequence of FGFR-1 (P11362 22-822, species assumed): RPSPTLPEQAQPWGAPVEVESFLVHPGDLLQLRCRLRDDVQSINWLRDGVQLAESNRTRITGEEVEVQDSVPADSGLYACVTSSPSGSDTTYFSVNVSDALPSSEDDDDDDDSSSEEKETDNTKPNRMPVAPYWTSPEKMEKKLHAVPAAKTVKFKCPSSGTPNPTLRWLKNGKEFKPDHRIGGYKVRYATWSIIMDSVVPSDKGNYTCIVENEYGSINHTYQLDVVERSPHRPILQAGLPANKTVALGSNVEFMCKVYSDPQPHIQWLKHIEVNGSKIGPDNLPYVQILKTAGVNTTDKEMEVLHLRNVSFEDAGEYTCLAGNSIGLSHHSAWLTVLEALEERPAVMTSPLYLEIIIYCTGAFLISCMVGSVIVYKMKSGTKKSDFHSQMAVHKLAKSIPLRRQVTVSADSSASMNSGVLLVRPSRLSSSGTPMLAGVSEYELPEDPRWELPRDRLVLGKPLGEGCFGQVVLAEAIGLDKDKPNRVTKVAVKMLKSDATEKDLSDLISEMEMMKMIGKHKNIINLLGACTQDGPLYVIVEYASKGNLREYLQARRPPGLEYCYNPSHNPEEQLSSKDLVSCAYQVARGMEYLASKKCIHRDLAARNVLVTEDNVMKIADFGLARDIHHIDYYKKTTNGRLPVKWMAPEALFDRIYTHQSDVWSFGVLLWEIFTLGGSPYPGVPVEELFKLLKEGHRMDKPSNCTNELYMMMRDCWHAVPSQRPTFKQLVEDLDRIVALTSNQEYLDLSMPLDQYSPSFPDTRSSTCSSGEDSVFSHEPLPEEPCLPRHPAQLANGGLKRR
Sequence of B-Raf (P15056 whole entry, species assumed): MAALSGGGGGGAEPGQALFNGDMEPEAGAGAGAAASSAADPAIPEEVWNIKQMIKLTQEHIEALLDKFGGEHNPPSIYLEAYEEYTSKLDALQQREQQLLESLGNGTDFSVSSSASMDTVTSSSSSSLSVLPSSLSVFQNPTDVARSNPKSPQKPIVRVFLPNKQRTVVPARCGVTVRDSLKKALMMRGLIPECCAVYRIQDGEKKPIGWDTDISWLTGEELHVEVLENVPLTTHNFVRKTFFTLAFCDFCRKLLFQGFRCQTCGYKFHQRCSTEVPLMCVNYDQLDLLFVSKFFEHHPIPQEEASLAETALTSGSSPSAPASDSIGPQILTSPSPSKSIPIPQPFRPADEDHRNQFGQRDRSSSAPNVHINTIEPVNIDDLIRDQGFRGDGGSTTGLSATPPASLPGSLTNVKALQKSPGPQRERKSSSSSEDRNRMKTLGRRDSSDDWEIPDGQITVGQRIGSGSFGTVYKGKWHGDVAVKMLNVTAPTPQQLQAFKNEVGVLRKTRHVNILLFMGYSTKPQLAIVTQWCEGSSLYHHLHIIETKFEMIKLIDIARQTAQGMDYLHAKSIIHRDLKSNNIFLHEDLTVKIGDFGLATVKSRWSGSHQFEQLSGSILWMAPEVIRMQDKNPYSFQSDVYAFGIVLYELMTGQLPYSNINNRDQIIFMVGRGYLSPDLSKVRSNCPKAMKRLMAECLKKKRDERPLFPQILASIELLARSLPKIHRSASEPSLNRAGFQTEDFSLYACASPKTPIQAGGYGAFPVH

SMILES: O=C(Nc1ccc(-c2ccc(NC(=O)C3CC3)nc2)cc1)Nc1ccccc1F [CDAU-7]
IC50 (TIE-2; [1]): > 1000 nM
IC50 (EA.hy926): 46.2 µM
IC50 (EphB4; Table 1, ATP 50 μM): > 1000 nM
IC50 (VEGFR-2; Table 1, ATP 50 μM): > 1000 nM

SMILES: CC(C)(C)NC(=O)Nc1ccc(-c2ccc(NC(=O)C3CC3)nc2)cc1 [CDAU-9]
IC50 (TIE-2; [1]): 858 nM
IC50 (EphB4; Table 1, ATP 50 μM): > 1000 nM
IC50 (VEGFR-2; Table 1, ATP 50 μM): > 1000 nM

SMILES: CN(C)CCNC(=O)Nc1ccc(-c2ccc(NC(=O)C3CC3)nc2)cc1 [CDAU-10]
IC50 (TIE-2; [1]): > 1000 nM
IC50 (EA.hy926): > 1000 µM
IC50 (EphB4; Table 1, ATP 50 μM): > 1000 nM
IC50 (VEGFR-2; Table 1, ATP 50 μM): > 1000 nM

SMILES: CN(C)C(=O)Nc1ccc(-c2ccc(NC(=O)C3CC3)nc2)cc1 [CDAU-11]
IC50 (TIE-2; [1]): > 1000 nM
IC50 (EphB4; Table 1, ATP 50 μM): > 1000 nM
IC50 (VEGFR-2; Table 1, ATP 50 μM): > 1000 nM

SMILES: O=C(Nc1ccc(-c2cccc(NC(=O)C3CC3)n2)cc1)Nc1ccc(Cl)c(C(F)(F)F)c1 [CDAU-12, N-(6-(4-(3-(4-chloro-3-(trifluoromethyl)phenyl)ureido)phenyl)pyridin-2-yl)cyclopropanecarboxamide]
IC50 (TIE-2; [2]): > 1000 nM
IC50 (EphB4; Table 2, ATP 50 μM): > 1000 nM
IC50 (VEGFR-2; Table 2, ATP 50 μM): > 1000 nM

SMILES: Cc1ccc(NC(=O)Nc2ccc(-c3cccc(NC(=O)C4CC4)n3)cc2)cc1Cl [CDAU-13]
IC50 (TIE-2; [2]): 271 nM
IC50 (EphB4; Table 2, ATP 50 μM): > 1000 nM
IC50 (VEGFR-2; Table 2, ATP 50 μM): > 1000 nM

SMILES: O=C(Nc1ccc(F)cc1)Nc1ccc(-c2cccc(NC(=O)C3CC3)n2)cc1 [CDAU-14]
IC50 (TIE-2; [2]): 32.9 nM
IC50 (EphB4; Table 2, ATP 50 μM): > 1000 nM

SMILES: CC(C)(C)c1ccc(NC(=O)Nc2ccc(-c3cccc(NC(=O)C4CC4)n3)cc2)cc1 [CDAU-15]
IC50 (TIE-2; [2]): > 1000 nM
IC50 (VEGFR-2; Table 2, ATP 50 μM): 28 nM

SMILES: O=C(Nc1ccc(-c2cccc(NC(=O)C3CC3)n2)cc1)Nc1ccccc1Cl [CDAU-16]
IC50 (TIE-2; [2]): > 1000 nM
IC50 (EphB4; Table 2, ATP 50 μM): > 1000 nM
IC50 (VEGFR-2; Table 2, ATP 50 μM): 73.4 nM

SMILES: CC(C)c1cccc(NC(=O)Nc2ccc(-c3cccc(NC(=O)C4CC4)n3)cc2)c1 [CDAU-17]
IC50 (EA.hy926): 133 µM
IC50 (EphB4; Table 2, ATP 50 μM): 170 nM
IC50 (VEGFR-2; Table 2, ATP 50 μM): 63 nM

SMILES: O=C(Nc1ccc(-c2cccc(NC(=O)C3CC3)n2)cc1)Nc1cccc(Cl)c1 [CDAU-18]
IC50 (TIE-2; [2]): 4.92 nM
IC50 (EA.hy926): 22.6 µM
IC50 (EphB4; Table 2, ATP 50 μM): > 1000 nM

SMILES: O=C(Nc1ccc(OC(F)(F)F)cc1)Nc1ccc(-c2cccc(NC(=O)C3CC3)n2)cc1 [CDAU-19]
IC50 (EA.hy926): 31 µM
IC50 (EphB4; Table 2, ATP 50 μM): > 1000 nM
IC50 (VEGFR-2; Table 2, ATP 50 μM): 34 nM

SMILES: O=C(Nc1ccc(-c2cccc(NC(=O)C3CC3)n2)cc1)Nc1ccc(Cl)cc1Cl [CDAU-20]
IC50 (TIE-2; [2]): 78.8 nM
IC50 (EA.hy926): 45.7 µM
IC50 (VEGFR-2; Table 2, ATP 50 μM): 42.7 nM

SMILES: O=C(Nc1ccc(-c2cccc(NC(=O)C3CC3)n2)cc1)Nc1ccc(F)cc1F [CDAU-22]
IC50 (TIE-2; [2]): > 1000 nM
IC50 (VEGFR-2; Table 2, ATP 50 μM): > 1000 nM

SMILES: O=C(Nc1ccc(-c2cccc(NC(=O)C3CC3)n2)cc1)Nc1ccccc1F [CDAU-23]
IC50 (TIE-2; [2]): > 1000 nM
IC50 (VEGFR-2; Table 2, ATP 50 μM): > 1000 nM

SMILES: O=C(Nc1ccc(-c2cccc(NC(=O)C3CC3)n2)cc1)Nc1cccc(F)c1 [CDAU-24]
IC50 (TIE-2; [2]): > 1000 nM
IC50 (VEGFR-2; Table 2, ATP 50 μM): > 1000 nM

SMILES: Cc1cccc(C)c1NC(=O)Nc1ccc(-c2cccc(NC(=O)C3CC3)n2)cc1 [CDAU-25]
IC50 (TIE-2; [2]): > 1000 nM
IC50 (EphB4; Table 2, ATP 50 μM): > 1000 nM

Further lines, with some results ahead:

IC50 (B-Raf): 57.2 nM
IC50 (TIE-2; [1]): 7.2 nM
IC50 (EGFR): 204 nM
melting point: 270 to 272 °C
IC50 (EphB4; Table 1, ATP 50 μM): 5.34 nM
IC50 (VEGFR-2; Table 1, ATP 50 μM): 1.11 nM
IC50 (Src): > 500 nM
IC50 (FGFR-1): 155 nM
SMILES: O=C(Nc1ccc(-c2ccc(NC(=O)C3CC3)nc2)cc1)Nc1cccc(C(F)(F)F)c1 [CDAU-1, N-(5-(4-(3-(3-(trifluoromethyl)phenyl)ureido)phenyl)pyridin-2-yl)cyclopropanecarboxamide]
IC50 (EA.hy926): 16.1 µM

IC50 (TIE-2; [1]): 27.5 nM
melting point: 241 to 243 °C
IC50 (EphB4; Table 1, ATP 50 μM): > 1000 nM
IC50 (VEGFR-2; Table 1, ATP 50 μM): 2 nM
SMILES: O=C(Nc1ccc(-c2ccc(NC(=O)C3CC3)nc2)cc1)Nc1ccc(C(F)(F)F)c(C(F)(F)F)c1 [CDAU-3]
IC50 (EA.hy926): 309 µM

IC50 (TIE-2; [1]): > 1000 nM
IC50 (VEGFR-2; Table 1, ATP 50 μM): 1.42 nM
SMILES: O=C(Nc1ccc(-c2ccc(NC(=O)C3CC3)nc2)cc1)Nc1ccc(F)c(F)c1 [CDAU-4]
IC50 (EA.hy926): 85 µM

IC50 (TIE-2; [1]): 61.3 nM
IC50 (EphB4; Table 1, ATP 50 μM): > 1000 nM
IC50 (VEGFR-2; Table 1, ATP 50 μM): 5.52 nM
SMILES: O=C(Nc1ccc(-c2ccc(NC(=O)C3CC3)nc2)cc1)Nc1ccc(C(F)(F)F)c(Cl)c1 [CDAU-5]
IC50 (EA.hy926): 152 µM

IC50 (TIE-2; [1]): 32.9 nM
IC50 (EphB4; Table 1, ATP 50 μM): 948 nM
IC50 (VEGFR-2; Table 1, ATP 50 μM): 23.3 nM
SMILES: O=C(Nc1ccc(-c2ccc(NC(=O)C3CC3)nc2)cc1)Nc1cccc(Cl)c1 [CDAU-6]
IC50 (EA.hy926): 880 µM

IC50 (TIE-2; [1]): > 1000 nM
IC50 (EphB4; Table 1, ATP 50 μM): > 1000 nM
IC50 (VEGFR-2; Table 1, ATP 50 μM): > 1000 nM
SMILES: O=C(Nc1ccc(OC(F)(F)F)cc1)Nc1ccc(-c2ccc(NC(=O)C3CC3)nc2)cc1 [CDAU-8]

IC50 (TIE-2; [2]): 42.8 nM
IC50 (EphB4; Table 2, ATP 50 μM): 162 nM
IC50 (VEGFR-2; Table 2, ATP 50 μM): 6.27 nM
SMILES: O=C(Nc1ccc(-c2cccc(NC(=O)C3CC3)n2)cc1)Nc1cccc(C(F)(F)F)c1 [CDAU-21]
IC50 (EA.hy926): 40.5 µM
